Data taken from ChEMBL document CHEMBL1156829 (Proc Natl Acad Sci U S A, 2008).

How the values were obtained:
[1] = test system: Plasmodium falciparum; assay: NOVARTIS: Inhibition of Plasmodium falciparum 3D7 (drug-susceptible) proliferation in erythrocyte-based infection assay; type: functional, organism-based; details: Plasmodium falciparum, 3D7
[2] = test system: Plasmodium falciparum; assay: NOVARTIS: Inhibition of Plasmodium falciparum W2 (drug-resistant) proliferation in erythrocyte-based infection assay; type: functional, organism-based; details: Plasmodium falciparum, W2; read-out: EC50
[3] = NOVARTIS: Cytotoxicity against human hepatocellular carcinoma cell line (Huh7); type: toxicity, cell-based, Huh-7; details: Huh7 cells (hepatocellular carcinoma cell line)

SMILES	EC50 [1] [nM]	EC50 [2] [nM]	CC50 [3] [nM]
c1cc2cc3c(cc2c2cc4c(cc12)C[N+]1(CCCC1)C4)C[N+]1(CCCC1)C3	645	1060	> 100000
CC(=NNC(=O)/C(=C/c1ccc([N+](=O)[O-])cc1)NC(=O)c1ccccc1)c1ccccn1	1050	117	> 10000
COc1ccc(C2CC(=O)C3=C(C2)NC(=O)CC3c2ccc([N+](=O)[O-])cc2)cc1OC (centres undefined)	346	64.9	> 100000
Cc1ccccc1NC(=O)N1CCN(C(=O)c2nc(-c3ccccc3)nc(C)c2C(=O)OC(C)C)CC1C (centres undefined)	135	99.5	51900
COc1ccc(/C=C2\SC(=O)NC2=Nc2ccccc2)c(OC)c1	1100	1010	> 10000
Cc1c[nH]c(CCNCc2ccc(OCC(O)CN(C)Cc3ccccc3)cc2)n1 (centres undefined)	1480	1190	54800
Cc1cccc(Nc2nc(NCc3ccco3)c3ccccc3n2)c1	266	326	4930
CCOC(=O)c1c(NC(=O)CSc2nnc(CNC(=O)c3cccs3)n2-c2cccc(Cl)c2)sc2c1CCCC2	> 1140	> 1240	> 10000
CCOC(=O)C1=C(C)NC2=C(C(=O)C(C(=O)OCC)C(c3ccccc3OC)C2)C1c1ccc([N+](=O)[O-])cc1 (centres undefined)	114	102	> 100000
O=C(NCCCCNc1ccnc2cc(Cl)ccc12)c1ccc([N+](=O)[O-])cc1	486	565	> 10000
CCOC(=O)C(=O)N1c2ccc(OC)cc2-c2c(ssc2=S)C1(C)C	2.43	3.19	> 100000
Cc1ccccc1Nc1nc(NCc2ccco2)c2ccccc2n1	548	529	15600
CCCCOc1ccc(N(C(C)=O)C2=C(N3CCOCC3)C(=O)c3ccccc3C2=O)cc1	232	304	41000
COc1ccc([N+](=O)[O-])cc1C=NNc1nc(Nc2ccc([N+](=O)[O-])cc2)nc(N2CCN(C)CC2)n1	859	388	30700
CN(C)CCNc1ncnc2c1[nH]c1ccc(Cl)cc12	632	886	20400
COc1ccc(C2CC(=O)C3=C(C2)NC(C)=C(C(=O)OC2CCCC2)C3c2ccccc2Cl)cc1OC (centres undefined)	55.8	7.38	> 100000
COc1ccc(-n2c(SC(C)C)nc3sc4c(c3c2=O)CCN(C)C4)cc1	2210	1850	> 100000

SMILES	EC50 [1] [nM]	EC50 [2] [nM]	CC50 [3] [nM]
Cc1ccccc1CNC(=O)c1oc2c(c1C)-c1[nH]ncc1CC2	> 1250	> 914	> 10000
COc1cc(NC(=O)Cn2ccc3ccc([N+](=O)[O-])cc32)cc(OC)c1OC	439	319	> 10000
Cc1ccc(C(=O)C(C)[n+]2ccc(N(C)C)cc2)cc1 (centres undefined)	438	4040	35300
O=C(COc1ccc(-c2ncccn2)cc1CN1CCCCCC1)NCc1ccccc1C(F)(F)F	> 1250	> 1150	> 10000
CCOC(=O)c1ccc(N(C(=O)Cc2c[nH]c3ccccc23)C(C(=O)NC2CCCCC2)c2cccc(OC)c2OC)cc1 (centres undefined)	54.2	104	> 100000
Cc1ccc(-c2cc(-c3cc(Cl)ccc3O)on2)cc1	> 798	472	> 10000
Cc1nc(Cl)cc(N2CCc3c(nc(N4CC(C)OC(C)C4)[nH]c3=O)C2)n1 (centres undefined)	176	> 1250	> 10000
O=C(NC1CC1)C1CCN(S(=O)(=O)c2ccc(Cl)cc2)CC1	5000	4720	> 100000
C[C@@H]1C[C@H]2CC[C@H](O2)[C@H](C)C(=O)O[C@@H](C)C[C@@H]2CC[C@@H](O2)[C@@H](C)C(=O)O[C@H](C)C[C@H]2CC[C@@H](O2)[C@H](C)C(=O)O[C@@H](C)C[C@@H]2CC[C@@H](O2)[C@@H](C)C(=O)O1 [NONACTIN]	433	359	3530
CC(C)(C)CC(C)(C)Nc1c(-c2ccccc2OC(=O)C2CCC2)nc2ccccn12	729	104	> 10000
O=C(COC(c1ccccc1)c1cccnc1)NCCNC(=O)OCc1ccccc1 (centres undefined)	967	941	> 10000
Cc1ccc2c(C)nc(NC(=N)N)nc2c1	406	756	48200
CCCOc1ccc(NC(=O)c2ccco2)cc1	1150	406	16900
CN1CCC(N[C@@H]2C[C@@H](C(=O)N3CCN(c4cccc(C(F)(F)F)c4)CC3)N(Cc3ccccc3Cl)C2)CC1	> 1250	> 1170	> 10000
CC(C)(C)NCC(O)COc1cccc2oc3ccccc3c12 (centres undefined)	> 1250	653	> 10000
Cc1ccc(NC(=O)N(CCN(C)C)Cc2cc3cc4c(cc3[nH]c2=O)OCCO4)cc1	984	157	> 100000
